# Source: US12527741B2, “Modular dendron micelles for treatment of pulmonary diseases related to fibrosis and viral infection including COVID-19” (priority 2021, dated 2026)
# Where no end group is shown, it is not given here.
# Assays:
# [1] = test system: TGFβ-induced NOX4/SM22α/FN1 expression; assay: TGFβ-induced myofibroblast transition, Q-RT-PCR of NOX4, SM22α and FN1; assay type: cell-based
# fibroblast contractility = assay type: cell-based; settings: TGFβ-induced
# BRD isoforms = assay type: binding; settings: data not shown
# [2] = test system: idiopathic pulmonary fibrosis; settings: IPF patients; cited from earlier work
# [3] = Hydrophobicity (log P) of BRD4 inhibitors; assay type: physicochemical
# [4] = Drug loading and encapsulation efficiency of PCL14K-DMs; assay type: physicochemical; settings: initial loading 20% wt, Dialysis
# Intravenous half-life = assay type: in vivo
# BRD4 BD1 = BRD4 BD1 (Homo sapiens, UniProt O60885); assay: Binding affinity to BRD4 BD1
# Excerpt: (§1) BRD4 is a member of the bromodomain and extraterminal (BET) protein family, containing two conserved bromodomains (BD). The BD is a high-affinity binding pocket for BRD4 binding to acetylated Lys residues on histones and transcription factors critical for histone acetyltransferase (HAT) activity. Small molecule BRD4 inhibitors that interact with the BRD4 BD inhibit BRD4 function by displacing BRD4 from genome binding sites, disrupting coactivator binding, and inhibiting its atypical HAT activity. A major limitation of pharmacological approaches to modifying BRD4 is that available inhibitors have poor selectivity for BRD isoforms. A third generation BRD4 inhibitor (BRD4i) with high selectivity for the BRD4 BD1 domain has been identified. This compound, ZL0591, binds with approximately 100 nM affinity to BRD4 BD1, but has 10× lower affinity for the BRD4 BD2 domain, and similarly has low affinity for BRD3.
# [5] = test system: Bleomycin-induced fibrosis; assay: Bleomycin-induced pulmonary fibrosis, therapeutic dosing; assay type: in vivo, mice
# BRD4 BD2 domain = BRD4 BD2 domain (Homo sapiens, UniProt O60885); assay: Binding affinity to BRD4 BD2
# Excerpt: as §1
# BRD3 = BRD3 (Homo sapiens, UniProt Q15059); assay: Binding affinity to BRD3
# BRD3, sequence (Q15059 whole entry, species assumed): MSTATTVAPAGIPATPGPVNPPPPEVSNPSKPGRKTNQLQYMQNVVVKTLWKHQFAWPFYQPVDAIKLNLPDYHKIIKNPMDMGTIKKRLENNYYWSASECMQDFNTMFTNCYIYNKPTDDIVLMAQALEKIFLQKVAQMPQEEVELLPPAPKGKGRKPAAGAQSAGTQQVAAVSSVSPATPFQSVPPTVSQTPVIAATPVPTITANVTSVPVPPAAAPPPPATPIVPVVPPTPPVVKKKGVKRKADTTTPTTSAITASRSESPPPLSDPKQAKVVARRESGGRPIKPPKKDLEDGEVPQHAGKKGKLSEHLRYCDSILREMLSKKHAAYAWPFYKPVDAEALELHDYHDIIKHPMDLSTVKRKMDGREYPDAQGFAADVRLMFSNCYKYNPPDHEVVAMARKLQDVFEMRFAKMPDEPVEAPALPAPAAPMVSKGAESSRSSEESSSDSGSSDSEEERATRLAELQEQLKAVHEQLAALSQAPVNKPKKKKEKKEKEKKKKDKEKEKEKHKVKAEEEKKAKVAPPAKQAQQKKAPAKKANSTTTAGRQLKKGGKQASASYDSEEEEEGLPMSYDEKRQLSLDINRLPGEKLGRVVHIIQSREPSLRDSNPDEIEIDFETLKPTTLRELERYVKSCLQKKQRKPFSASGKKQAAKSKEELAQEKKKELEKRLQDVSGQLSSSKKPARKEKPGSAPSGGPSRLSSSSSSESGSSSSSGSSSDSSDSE
# Excerpt: as §1
# PD-L1 = PD-L1 (Homo sapiens, UniProt Q9NZQ7); settings: SPR
# PD-L1, sequence (Q9NZQ7 19-290): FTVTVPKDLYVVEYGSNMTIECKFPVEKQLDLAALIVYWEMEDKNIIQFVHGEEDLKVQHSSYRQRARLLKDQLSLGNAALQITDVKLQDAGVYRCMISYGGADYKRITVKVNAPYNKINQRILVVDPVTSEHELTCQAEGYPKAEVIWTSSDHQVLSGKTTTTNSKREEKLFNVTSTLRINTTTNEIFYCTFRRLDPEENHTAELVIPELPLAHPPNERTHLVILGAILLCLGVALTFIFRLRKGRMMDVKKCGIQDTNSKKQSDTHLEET
# MCF-7 cells = assay: Binding to cells with low PD-L1 expression; assay type: cell-based
# Excerpt: (§2) (SEQ ID NO: 5), optimized from the literature.
# 7860 cells = assay: Binding to high PD-L1 expressing cells; assay type: cell-based; settings: fluorescence
# Excerpt: as §2
molecule,measurement,setting,value
Cc1sc2c(c1C)C(c1ccc(Cl)cc1)=N[C@@H](CC(=O)OC(C)(C)C)c1nnc(C)n1-2 [JQ1],FN1 expression,[1],effectively blocked
same,NOX4 expression,[1],effectively blocked
same,SM22α expression,[1],effectively blocked
same,Contractility (retraction of collagen plugs),fibroblast contractility,effectively inhibited
same,Discrimination between BRD isoforms,BRD isoforms,no discrimination
"COC(=O)c1ccc2c(c1)NC(=O)/C2=C(\Nc1ccc(N(C)C(=O)CN2CCN(C)CC2)cc1)c1ccccc1 [Nintedanib, nintedanib]",Decrease/loss of forced vital capacity (FVC),[2],efficacy was shown
COc1cc(OC)c2c(=O)cc(-c3cc(C)c(OC[C@H](O)CN4CCN(C)CC4)c(C)c3)oc2c1 [ZL0516],log P,[3],2.89
same,Drug Loading %,[4],0.70 ± 0.17%
same,Encapsulation Efficiency %,[4],2.52 ± 0.17%
O=C(Nc1ccc(C(F)(F)F)cc1)Nc1ccc(S(=O)(=O)N2CCC[C@H]2CN2CCC(O)CC2)cc1 [ZL0591],Intravenous T1/2,Intravenous half-life,11.8 h
same,Kd,BRD4 BD1,~100 nM
same,Pulmonary collagen content (hydroxyproline in total lung homogenates),"[5]; 10 mg/kg/dose systemic (IP), started 14 d after bleomycin, 14 d of treatment",significantly reduced
same,Blood oxygen saturation,[5]; bleomycin- and BRD4 inhibitor-treated vs controls,increase
same,Alveolar consolidation and fibrotic pattern (Massons Trichrome),[5]; fixed lung sections,substantially reduced
same,Modified Ashcroft indices,[5]; scored by independent pathologist,reduction in Ashcroft indices was statistically significant
same,Lung density by microCT,[5]; vs bleomycin treated only,reduction
same,Lower affinity for BRD4 BD2 domain relative to BD1,BRD4 BD2 domain,10 ×
same,Affinity for BRD3,BRD3,low affinity
Cc1ccc(=O)n(-c2ccccc2)c1 [pirfenidone],Decrease/loss of forced vital capacity (FVC),[2],slows
same,Progression-free survival,[2],improves
"G7-pPD1: PD-L1-binding peptide pPD-1 conjugated to G7 PAMAM dendrimers (HVVWHRESPSGQTDTLAA; also: conjugated to G7 PAMAM dendrimers, site not given here)",KD compared with full antibody (aPD-L1),PD-L1,comparable
same,Interaction with low PD-L1 expression cells,MCF-7 cells,lack of observed interactions
same,Binding to PD-L1 expressing cells,7860 cells,selective binding
same,Binding to PD-L1 expressing cells,7860 cells; listed as dendrimer-pPD-1,specific interaction
